Measurements taken from PubChem BioAssay AID743309 (Sanford-Burnham Center for Chemical Genomics, 2014).
Active and inactive are the calls of the source.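 The calls were made as follows: active = IC50 at or below 20 µM; inactive = the rest.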

Biological target: Tyrosine-protein phosphatase non-receptor type 22 (Homo sapiens) (UniProt Q9Y2R2)
Test: PTPN22 enzyme inhibitor analogs – biochemical, fluorescence, LYP catalytic domain, selectivity assay for LMPTP inhibitor project, SAR follow-up (AID 743309)
Details: recombinant LYP catalytic domain, OMFP fluorescence

Sequence of Tyrosine-protein phosphatase non-receptor type 22 (Homo sapiens) (Q9Y2R2 whole entry, looked up, the tested form may be a part): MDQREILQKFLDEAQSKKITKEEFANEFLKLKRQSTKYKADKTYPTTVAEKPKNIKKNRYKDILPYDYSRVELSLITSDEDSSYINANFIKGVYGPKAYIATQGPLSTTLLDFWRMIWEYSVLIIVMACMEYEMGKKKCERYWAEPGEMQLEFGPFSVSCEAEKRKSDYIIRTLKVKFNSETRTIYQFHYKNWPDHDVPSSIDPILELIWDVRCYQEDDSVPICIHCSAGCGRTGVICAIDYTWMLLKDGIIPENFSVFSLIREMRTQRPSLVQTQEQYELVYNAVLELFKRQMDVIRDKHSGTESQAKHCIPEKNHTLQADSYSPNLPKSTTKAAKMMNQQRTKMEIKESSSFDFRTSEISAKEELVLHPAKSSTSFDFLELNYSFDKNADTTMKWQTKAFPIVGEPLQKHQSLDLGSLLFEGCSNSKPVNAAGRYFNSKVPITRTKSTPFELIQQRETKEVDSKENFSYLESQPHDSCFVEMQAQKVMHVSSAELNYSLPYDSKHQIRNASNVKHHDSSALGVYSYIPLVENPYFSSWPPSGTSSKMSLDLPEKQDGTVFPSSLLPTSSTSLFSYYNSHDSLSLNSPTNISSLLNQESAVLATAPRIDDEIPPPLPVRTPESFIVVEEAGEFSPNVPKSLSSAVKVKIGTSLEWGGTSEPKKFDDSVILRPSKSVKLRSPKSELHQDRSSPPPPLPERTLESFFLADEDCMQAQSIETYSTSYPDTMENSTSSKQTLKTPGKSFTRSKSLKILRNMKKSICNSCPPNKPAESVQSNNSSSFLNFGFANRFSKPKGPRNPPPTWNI

IC50	SMILES
> 80 µM (inactive)	c1ccc(-c2nc(NCCCN3CCOCC3)c3ccccc3n2)cc1
> 80 µM (inactive)	Cc1cccc(-c2nc(NCCCN3CCOCC3)c3ccccc3n2)c1
> 80 µM (inactive)	Fc1cccc(-c2cc(NCCCN3CCCCC3)c3ccccc3n2)c1
> 80 µM (inactive)	c1ccc(-c2cc(OCCCN3CCCCC3)c3ccccc3n2)cc1
> 80 µM (inactive)	COc1ccccc1-c1cc(NCCCN2CCCCC2)c2ccccc2n1
> 80 µM (inactive)	COc1cccc(-c2cc(NCCCN3CCCCC3)c3ccccc3n2)c1
> 80 µM (inactive)	Cc1ccc2nc(-c3ccccc3)cc(NCCCN3CCCCC3)c2c1
> 80 µM (inactive)	Clc1ccccc1-c1cc(NCCCN2CCCCC2)c2ccccc2n1
> 80 µM (inactive)	COc1cc2nc(-c3ccccc3)cc(NCCCN3CCCCC3)c2cc1OC
> 80 µM (inactive)	COc1ccc(-c2cc(NCCCN3CCCCC3)c3ccccc3n2)cc1
> 80 µM (inactive)	Fc1ccc2nc(-c3ccccc3)cc(NCCCN3CCCCC3)c2c1
> 80 µM (inactive)	c1ccc(-c2nc(NCCN3CCCCC3)c3ccccc3n2)cc1
> 80 µM (inactive)	c1ccc(-c2nc(NCCN3CCCC3)c3ccccc3n2)cc1
> 80 µM (inactive)	c1ccc(-c2cc(N3CCCCC3)c3ccccc3n2)cc1
> 80 µM (inactive)	c1ccc(-c2cc(NCCN3CCOCC3)c3ccccc3n2)cc1
> 80 µM (inactive)	Fc1ccc(-c2cc(NCCCN3CCCCC3)c3ccccc3n2)cc1
> 80 µM (inactive)	c1ccc(-c2nc(NCCCN3CCCCC3)c3ccccc3n2)cc1
> 80 µM (inactive)	FC(F)(F)c1cccc(-c2cc(NCCCN3CCCCC3)c3ccccc3n2)c1
> 80 µM (inactive)	c1ccc2c(NCCCN3CCCCC3)cc(-c3ccncc3)nc2c1
> 80 µM (inactive)	c1ccc(-c2cc(SCCCN3CCCCC3)c3ccccc3n2)cc1
> 80 µM (inactive)	Clc1cccc(-c2cc(NCCCN3CCCCC3)c3ccccc3n2)c1
> 80 µM (inactive)	c1ccc(-c2cc(NCCN3CCCC3)c3ccccc3n2)cc1
> 80 µM (inactive)	Brc1ccc2nc(-c3ccccc3)cc(NCCCN3CCCCC3)c2c1
> 80 µM (inactive)	c1ccc(-c2cc(NCCCN3CCCCC3)c3ccccc3n2)cc1
> 80 µM (inactive)	Cc1ccc(-c2cc(NCCCN3CCCCC3)c3ccccc3n2)cc1
> 80 µM (inactive)	Clc1ccc(-c2cc(NCCCN3CCCCC3)c3ccccc3n2)cc1
> 80 µM (inactive)	c1ccc(-c2cc(NCCCN3CCOCC3)c3ccccc3n2)cc1
> 80 µM (inactive)	c1ccc(-c2cc(NCCN3CCCCC3)c3ccccc3n2)cc1

More lines, now with the values behind:

SMILES	IC50
CC(C)Nc1nc(-c2ccccc2)nc2ccccc12	> 80 µM (inactive)
Cc1c(CCC(=O)O)c(=O)oc2c(C)c(OCc3ccccc3Cl)ccc12	15.7 µM
c1ccc(-c2nc(N3CCCCCC3)c3ccccc3n2)cc1	> 80 µM (inactive)
c1ccc(-c2nc(NCc3cccnc3)c3ccccc3n2)cc1	> 80 µM (inactive)
c1ccc(-c2nc(NCCCn3ccnc3)c3ccccc3n2)cc1	> 80 µM (inactive)
CC(C)OCCCNc1nc(-c2ccccc2)nc2ccccc12	> 80 µM (inactive)
CCN(CC)c1nc(-c2ccccc2)nc2ccccc12	> 80 µM (inactive)
CC(C)CNc1nc(-c2ccccc2)nc2ccccc12	> 80 µM (inactive)
Fc1ccccc1-c1nc(NC2CCCC2)c2ccccc2n1	> 80 µM (inactive)
CN(C)CCNc1cc(-c2ccccc2)nc2ccccc12	> 80 µM (inactive)
c1ccc(-c2nc(N3CCCC3)c3ccccc3n2)cc1	> 80 µM (inactive)
c1ccc(-c2nc(N3CCCCC3)c3ccccc3n2)cc1	> 80 µM (inactive)
CN(C)CCNc1nc(-c2ccccc2)nc2ccccc12	> 80 µM (inactive)
Nc1nc(N)c(Cc2ccc(Cl)cc2Cl)c(N)n1	> 80 µM (inactive)
c1ccc(-c2nc(N3CCOCC3)c3ccccc3n2)cc1	> 80 µM (inactive)
O=C(OCCNc1nc(-c2ccccc2)nc2ccccc12)c1ccncc1	> 80 µM (inactive)

SMILES	IC50
CCCCNc1nc(-c2ccccc2)nc2ccccc12	> 80 µM (inactive)
CC1CCN(c2nc(-c3ccccc3)nc3ccccc23)CC1	> 80 µM (inactive)
COc1ccccc1CNc1ncnc2ccsc12	> 80 µM (inactive)
Cc1ccc(-c2nc(NCCN3CCOCC3)c3ccccc3n2)cc1	> 80 µM (inactive)
c1ccc(-c2nc(N3CCSCC3)c3ccccc3n2)cc1	> 80 µM (inactive)
c1ccc(-c2nc(NCCN3CCOCC3)c3ccccc3n2)cc1	> 80 µM (inactive)
Clc1cccc(Cl)c1Cn1cnc(=NCc2ccco2)c2[nH]cnc21	> 80 µM (inactive)
c1ccc(-c2nc(NC3CCCC3)c3ccccc3n2)cc1	> 80 µM (inactive)
Fc1ccccc1-c1nc(NCCCN2CCOCC2)c2ccccc2n1	> 80 µM (inactive)
CN1CCN(c2nc(-c3ccccc3)nc3ccccc23)CC1	> 80 µM (inactive)
Cc1ccc(-c2nc(NCc3cccnc3)c3ccccc3n2)cc1	> 80 µM (inactive)
CCc1nc(N)nc(N)c1-c1ccc(Cl)cc1	> 80 µM (inactive)
c1ccc(-c2nc(NC3CCCCC3)c3ccccc3n2)cc1	> 80 µM (inactive)
c1ccc(-c2nc(NC3CC3)c3ccccc3n2)cc1	> 80 µM (inactive)
O=C(OCCNc1nc(-c2ccccc2)nc2ccccc12)c1cccnc1	> 80 µM (inactive)
